Experimental data from patent US9056111B1, “Selective efflux inhibitors and related pharmaceutical compositions and methods of treatment” (STC.UNM, priority 2011, dated 2015).
Where “and” joins values, the source holds several entries; their conditions need not be identical. Equal entries are not always repeated. Where two headings read alike, the source gives them in different places.

Tests used:
[1] = target: ABCB1 (Homo sapiens, UniProt P08183); experiment: JC-1 efflux inhibition dose response, flow cytometry, Jurkat-DNR cells; conditions: for IC50: Jurkat-DNR cells over-expressing ABCB1, averages of two to four replicates
ABCB1, sequence (P08183 whole entry): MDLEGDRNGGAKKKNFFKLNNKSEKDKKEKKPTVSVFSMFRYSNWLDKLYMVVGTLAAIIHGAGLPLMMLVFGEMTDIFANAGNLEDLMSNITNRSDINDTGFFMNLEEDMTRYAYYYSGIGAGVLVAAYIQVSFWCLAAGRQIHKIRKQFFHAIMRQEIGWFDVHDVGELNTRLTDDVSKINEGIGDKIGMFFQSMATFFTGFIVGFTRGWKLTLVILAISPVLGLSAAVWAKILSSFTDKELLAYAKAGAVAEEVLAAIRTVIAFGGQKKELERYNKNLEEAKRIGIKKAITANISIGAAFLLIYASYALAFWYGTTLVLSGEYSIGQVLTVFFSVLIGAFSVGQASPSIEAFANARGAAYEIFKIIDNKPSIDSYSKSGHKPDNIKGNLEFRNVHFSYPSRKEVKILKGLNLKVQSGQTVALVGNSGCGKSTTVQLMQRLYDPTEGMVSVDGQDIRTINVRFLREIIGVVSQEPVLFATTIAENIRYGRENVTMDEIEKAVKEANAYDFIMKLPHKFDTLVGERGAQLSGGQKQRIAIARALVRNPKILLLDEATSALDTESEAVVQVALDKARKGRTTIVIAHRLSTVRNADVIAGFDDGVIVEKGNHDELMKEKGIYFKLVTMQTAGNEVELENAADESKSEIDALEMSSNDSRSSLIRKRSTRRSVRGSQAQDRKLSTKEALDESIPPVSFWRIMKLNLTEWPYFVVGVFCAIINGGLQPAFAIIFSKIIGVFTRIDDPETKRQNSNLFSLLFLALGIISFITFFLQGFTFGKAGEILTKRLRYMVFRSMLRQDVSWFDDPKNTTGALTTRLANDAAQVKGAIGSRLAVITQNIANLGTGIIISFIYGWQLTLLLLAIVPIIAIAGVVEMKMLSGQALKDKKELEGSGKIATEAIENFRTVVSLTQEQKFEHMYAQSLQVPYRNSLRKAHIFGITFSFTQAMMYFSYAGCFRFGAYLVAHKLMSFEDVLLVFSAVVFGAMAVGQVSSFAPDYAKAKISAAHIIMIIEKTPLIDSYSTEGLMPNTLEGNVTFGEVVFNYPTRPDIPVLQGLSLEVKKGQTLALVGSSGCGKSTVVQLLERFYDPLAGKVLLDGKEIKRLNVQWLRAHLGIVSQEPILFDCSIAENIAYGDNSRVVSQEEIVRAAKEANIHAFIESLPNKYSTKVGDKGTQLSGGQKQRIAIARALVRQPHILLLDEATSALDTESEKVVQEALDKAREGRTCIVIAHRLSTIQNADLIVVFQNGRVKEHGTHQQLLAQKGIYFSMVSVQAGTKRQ
Protocol: (§1) The HyperCyt® high throughput flow cytometry platform (IntelliCyt™, Albuquerque, N. Mex.) was used to sequentially sample cells from 384-well microplates (2 μL/sample) for flow cytometer presentation at a rate of 40 samples per minute.^62-63 Flow cytometric analysis was performed on a CyAn™ flow cytometer (Beckman-Coulter, Fullerton, Calif.). The resulting time-gated data files were analyzed with HyperView® software to determine compound activity in each well. Inhibition response curves were fitted by Prism® software (GraphPad Software, Inc., San Diego, Calif.) using nonlinear least-squares regression in a sigmoidal dose response model with variable slope, also known as the four-parameter logistic equation. This type of time-gated flow cytometric data analysis was described in detail for a previous ABC transporter screen from our group.^56
The assay provider's ABCB1 over-expressing Jurkat-DNR cell line is used for confirmatory follow up instead of the CCRF-Adr cells. Each cell line (Jurkat-DNR and Ig-MXP3) is run separately against all compounds (no differential cell staining) in dose response. The assay is conducted in 384-well format in a total volume of 15.1 μL. Cells and reagents are added sequentially as follows: 1) PBS buffer (5 μL/well); 2) test compound (100 nL/well); 3) drug-resistant cells (10 μL/well) pre-stained with the JC-1 substrate at 1 μM. Final in-well concentrations of test compound range from 50 μM to 69 nM over an 18 point dose response and the cell concentration is 1×10^6 cells/mL. Nicardipine (50 μM) is added to each plate as a pan-inhibition positive control. The plate is rotated end-over-end at 4 RPM and 25° C. for 30 minutes and then cell samples are analyzed and flow cytometric data of light scatter and fluorescence emission at 530+/−20 nm (488 nm excitation, FL1) are collected.
(§2) Each cell line (Jurkat-DNR and Ig-MXP3) was run separately against all compounds (no differential cell staining) in dose-response. The protocol differed from the single point screen as describe here. Cells and reagents were added sequentially as follows: 1) PBS buffer (5 μL per well); 2) test compound (100 nL per well); 3) drug-resistant cells (10 μL, per well) pre-exposed to the JC-1 substrate at 1 μM just prior to the well addition. Final in-well concentrations of test compound ranged from 50 μM to 69 nM over an 18 point dose-response and the cell concentration was 1×10^6 cells mL^−1.

[2] = target: T1, ABCG2 (Homo sapiens, UniProt Q9UNQ0); experiment: JC-1 efflux inhibition dose response, flow cytometry, Ig-MXP3 cells
T1 sequence (Q9UNQ0 1-655): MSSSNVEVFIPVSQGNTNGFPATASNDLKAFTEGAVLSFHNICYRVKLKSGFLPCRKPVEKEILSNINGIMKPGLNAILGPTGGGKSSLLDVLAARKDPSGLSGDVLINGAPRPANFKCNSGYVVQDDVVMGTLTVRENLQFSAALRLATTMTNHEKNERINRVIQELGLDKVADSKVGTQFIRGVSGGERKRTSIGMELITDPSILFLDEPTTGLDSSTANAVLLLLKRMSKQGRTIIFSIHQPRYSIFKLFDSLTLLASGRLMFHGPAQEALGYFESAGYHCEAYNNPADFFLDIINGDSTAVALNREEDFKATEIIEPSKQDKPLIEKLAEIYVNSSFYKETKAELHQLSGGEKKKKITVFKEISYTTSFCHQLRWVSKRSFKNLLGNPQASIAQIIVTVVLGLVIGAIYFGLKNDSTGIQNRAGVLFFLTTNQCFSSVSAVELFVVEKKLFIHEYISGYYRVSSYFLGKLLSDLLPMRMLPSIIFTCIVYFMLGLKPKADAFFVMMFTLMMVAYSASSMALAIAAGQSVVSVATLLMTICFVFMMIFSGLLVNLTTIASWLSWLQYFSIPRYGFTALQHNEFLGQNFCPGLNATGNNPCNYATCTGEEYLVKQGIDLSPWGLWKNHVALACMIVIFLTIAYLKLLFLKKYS
Protocol: as §1
(§3) The assay provider's ABCB1 over-expressing Jurkat-DNR cell line is used for confirmatory follow up instead of the CCRF-Adr cells. Each cell line (Jurkat-DNR and Ig-MXP3) is run separately against all compounds (no differential cell staining) in dose response. The assay is conducted in 384-well format in a total volume of 15.1 μL. Cells and reagents are added sequentially as follows: 1) PBS buffer (5 μL/well); 2) test compound (100 nL/well); 3) drug-resistant cells (10 μL/well) pre-stained with the JC-1 substrate at 1 μM. […] Nicardipine (50 μM) is added to each plate as a pan-inhibition positive control.
as §2, with “addition.” for “addition. Final in-well concentrations of test compound ranged from 50 μM to 69 nM over an 18 point dose-response and the cell concentration was 1×10^6 cells mL^−1.”

[3] = tested on: ABCB1 over-expressing Jurkat-DNR cells; experiment: Chemoreversal assay: potentiation of daunorubicin (DNR) killing; type: cell-based
[4] = tested on: ABCG2 over-expressing Ig-MXP3 cells; experiment: Chemoreversal assay: potentiation of mitoxantrone (MTX) killing; type: cell-based; conditions: Ig-MXP3 cells
[5] = tested on: Jurkat-DNR cells; experiment: Direct cytotoxicity (Toxic Dose 50) without chemotherapeutic
Protocol: Cells (ABCB1, Jurkat-DNR or ABCG2 Ig-MXP3) are incubated with the test compound (3 order of magnitude concentration range) over a 3-day and 7-day period in the presence of the inhibitor and chemotherapeutic (ABCB1, DNR or ABCG2 MTX), such that a cell concentration of at least 1×10^5 cells/mL is maintained. Cell viability is determined by trypan blue staining and enumeration under light microscopy. […] A chemoreversal index (Chemoreversal 50, CR50) is determined from the viability assessment. Using a similar approach, a direct cytotoxicity index (Toxic Dose 50, TD50) is determined by assessment of cell death of cells grown in media alone.
Cells (ABCB1, Jurkat-DNR or ABCG2 Ig-MXP3) were incubated with the test compound in a 3 order of magnitude concentration range over three and seven day periods in the presence of the inhibitor and chemotherapeutic (ABCB1, 100 nM DNR or ABCG2 30 nM MTX), such that a cell concentration of at least 1×10^5 cells mL^−1 was maintained. Cell viability was determined by trypan blue staining and enumeration under light microscopy. […] A chemoreversal index (Chemoreversal 50, CR50) was determined from the viability assessment. Using a similar approach, a direct cytotoxicity index (Toxic Dose 50, TD50) was determined by assessment of cell death of cells grown in media alone.

[6] = tested on: Ig-MXP3 cells; experiment: as above; type: cell-based
[7] = target: T2, ABCB1 / ABCG2 (Homo sapiens, UniProt Q9UNQ0); experiment: JC-1 efflux inhibition dose response, flow cytometry, Ig-MXP3 cells; conditions: human, probe JC-1 (1 µM), ~Fold G2 Selective (B1/G2), quotient of average ABCB1 IC50 and average ABCG2 IC50, efflux assay
T2 sequence (Q9UNQ0 1-655): T1 sequence (Q9UNQ0 1-655)
Protocol: as §1, §3
as §2, with “addition.” for “addition. Final in-well concentrations of test compound ranged from 50 μM to 69 nM over an 18 point dose-response and the cell concentration was 1×10^6 cells mL^−1.”

[8] = read-out: IC50 ABCB1 (efflux inhibition of JC-1 substrate)
[9] = read-out: IC50 ABCG2 (efflux inhibition of JC-1 substrate), Ig-MXP3 cells over-expressing ABCG2, averages of two to four replicates
[10] = Jurkat-DNR cells, inhibitor without chemotherapeutic
[11] = Ig-MXP3 cells, inhibitor without chemotherapeutic
[12] = IC50 ABCB1 (efflux inhibition of JC-1 substrate)
[13] = constant 100 nM DNR, varied inhibitor dose, read-out: CR50 ABCB1
[14] = constant 30 nM MTX, varied inhibitor dose, read-out: CR50 ABCG2

Row | SMILES | IC50 [1, 8] [nM] | IC50 [2, 9] [nM] | TD50 ABCB1 [5] [µM] | TD50 ABCG2 [6] [µM] | TD50 ABCB1 [5, 10] [µM] | TD50 ABCG2 [6, 11] [µM] | IC50 [1, 12] [nM] | IC50 [2] [nM] | EC50 [3, 13] [nM] | EC50 [4, 14] [nM] | further results
1 | COc1cc2c(cc1OC)CN(CCc1ccc(NC(=O)c3cccc(/C=c4\[nH]c(=O)/c(=C/c5ccccc5)n(C)c4=O)c3)cc1)CC2 [Compound 2, reference compound] | 610 ± 430 | 2270 ± 2050 | 1.97 | 21.40 |  |  |  |  |  |  | IC50 ([1]; read-out: IC50 ABCB1 (efflux inhibition of JC-1 substrate), listed as XR9051): 600 nM; IC50 ([2]; read-out: IC50 ABCG2 (efflux inhibition of JC-1 substrate), Ig-MXP3 cells over-expressing ABCG2, averages of two to four replicates, listed as XR9051): 2300 nM; EC50 ([3]; values in nM, read-out: chemoreversal (CR50) ABCB1): 10 nM; EC50 ([4]; values in nM, listed as XR9051, read-out: chemoreversal (CR50) ABCG2): 700 nM; EC50 ([4]; values in nM, read-out: chemoreversal (CR50) ABCG2): 650 nM
2 | COc1ccc2c3c([nH]c2c1)[C@H](CC(C)C)N1C(=O)[C@H](CCC(=O)OC(C)(C)C)NC(=O)[C@@H]1C3 [Compound 4, reference compound] |  |  |  |  | 2.84 | 20.00 |  |  |  |  | 
3 | CN(C)C(=O)CCSC(SCCC(=O)O)c1cccc(/C=C/c2ccc3ccc(Cl)cc3n2)c1 (stereo not shown) [Compound 5, reference compound] | > 50000 |  |  |  | 20.40 | 57.40 | > 50000 | > 50000 | 20400 | 57400 | efflux inhibition activity ABCB1 ([1]; JC-1 efflux, Jurkat-DNR): didn't observe any inhibition; efflux inhibition activity ABCG2 ([2]; JC-1 efflux, Ig-MXP3): didn't observe any inhibition
4 | O=C(NCCCN1CCOCC1)c1cnn2c(-c3ccccc3)cc(-c3ccccc3)nc12 [Compound 6, reference compound] |  |  | 7.04 | >100 |  |  |  |  | 220 | 3610 | IC50 ([1]; read-out: IC50 ABCB1 (efflux inhibition of JC-1 substrate), listed as reversan): 4400 nM and 4410 nM; IC50 ([2]; read-out: IC50 ABCG2 (efflux inhibition of JC-1 substrate), Ig-MXP3 cells over-expressing ABCG2, averages of two to four replicates, listed as reversan): 800 nM and 840 nM; EC50 ([3]; constant 100 nM DNR, varied inhibitor dose, listed as reversan, read-out: CR50 ABCB1): 2200 nM; EC50 ([4]; constant 30 nM MTX, varied inhibitor dose, listed as reversan, read-out: CR50 ABCG2): 3600 nM
5 | O=C(c1ccco1)N1CCN(c2cc(-c3ccccc3)nc3cc(-c4cccc(Cl)c4)nn23)CC1 [Compound 8] | 6180 | 960 |  |  |  |  |  |  | 250 | 140 | ~Fold G2 Selective (B1/G2) ([2]; quotient of average ABCB1 IC50 and average ABCG2 IC50, efflux assay): 6.4 fold; EC50 ([3]; constant 100 nM DNR, varied inhibitor dose, listed as SID 85240370, read-out: CR50 ABCB1): 700 nM
6 | Cc1nc2cc(-c3cccc(Cl)c3)nn2c(N2CCN(C(=O)c3ccco3)CC2)c1C [Compound 9] |  |  |  |  | >100 | 47.40 | 8400 ± 700 | 2650 ± 1070 |  | 170 | selectivity ratio at 30 min [7]: 3.2
